Data published in patent US12729377B2, “RNAi agents and compositions for inhibiting expression of angiopoietin-like 3 (ANGPTL3), and methods of use” (Arrowhead Pharmaceuticals, Inc., priority 2017, dated 2026).
In the oligonucleotide strings, read from the 5' end, every base follows the letter of its sugar. An asterisk marks phosphorothioate; unmarked linkages are phosphodiester. Other units and linkages are bracketed, terminal groups are in braces. A string of capitals states the bases alone. {NAG37} = tridentate N-acetyl-galactosamine targeting ligand, structure (NAG37)s; [invAb] = inverted abasic unit; m = 2'-O-methyl; f = 2'-fluoro

What was measured:
ANGPTL3 gene [1] = experiment: Example 4: serum LDL in mice; type: in vivo, C57bl/6 mice; conditions: for Avg LDL, normalized to pre-treatment and control: serum, n=3
Method: (§1) To assess the in vivo activity of ANGPTL3 RNAi agents that are designed to target additional positions on the ANGPTL3 gene, six- to eight-week-old female C57bl/6 mice were used. Pre-dose serum samples were taken at day −1 after a four hour fast. At day 1, each mouse was given a single subcutaneous administration of 200 μl containing either 1 mg/kg (mpk) or 0.5 mg/kg (mpk) of an ANGPTL3 RNAi agent in D5W (dextrose in 5% water), or control (D5W) with no RNAi agent, according to the dosing groups recited in Table 17.
(§2) Each of the RNAi agents included a modified sequence and an N-acetyl-galactosamine-containing targeting ligand conjugated to the 5′ terminal end of the sense strand. (See Tables 3, 4, and 5 for modified sequences and targeting ligand structures). The injections were performed between the skin and muscle (i.e. subcutaneous injections) into the loose skin over the neck and shoulder area. Three (3) mice in each group were tested (n=3). Serum was collected on days 8, 15, 22, 29, and day 43 (Groups 1-3, 9, and 11-13 only). Mice were fasted for four hours prior to each collection. ANGPTL3 protein levels in serum were measured by ELISA assay (R&D Systems), according to the manufacturer's recommendations. Triglycerides, high-density lipoprotein (HDL), and total cholesterol in serum were measured on a Cobas® Integra 400 (Roche Diagnostics), according to the manufacturer's recommendations.
(§3) The ANGPTL3 protein levels, triglyceride levels, HDL levels, and total cholesterol levels for each animal were normalized. For normalization, the level of ANGPTL3 protein, triglyceride, HDL, and total cholesterol, respectively, for each animal at a time point, was divided by the pre-treatment level of expression in that animal (in this case at day −1) to determine the ratio of expression “normalized to pre-treatment.” Expression at a specific time point was then normalized to the D5W control group by dividing the “normalized to pre-treatment” ratio for an individual animal by the mean “normalized to pretreatment” ratio of all mice in the D5W control group.

ANGPTL3 gene [2] = experiment: Example 4: serum triglycerides in mice; type: in vivo
Method: as §1, §2, §3

ANGPTL3 gene [3] = experiment: Example 7: serum total cholesterol in mice; type: in vivo, C57bl/6 mice; parameters: key: ratio: (level/pre-treatment day -1 level) ÷ mean of D5W control group
Method: To further assess the in vivo activity of additional ANGPTL3 RNAi agents that are designed to target position 304 on the ANGPTL3 gene, six- to eight-week-old female C57bl/6 mice were used. Pre-dose serum samples were taken at day −1 after a four hour fast. At day 1, each mouse was given a single subcutaneous administration of 200 μl containing 0.5 mg/kg (mpk) of an ANGPTL3 RNAi agent in D5W (dextrose in 5% water), or control (D5W) with no RNAi agent, according to the dosing groups recited in Table 31.
as §2, with “22,” for “22, 29,”, “29.” for “day 43 (Groups 1-3, 9, and 11-13 only).”, “Triglycerides, total cholesterol,” for “Triglycerides,”, “low-density lipoprotein (LDL)” for “total cholesterol”
The ANGPTL3 protein levels, triglyceride levels, total cholesterol levels, HDL levels, and LDL levels for each animal were normalized. For normalization, the level of ANGPTL3 protein, triglyceride, HDL, and total cholesterol, respectively, for each animal at a time point, was divided by the pre-treatment level of expression in that animal (in this case at day −1) to determine the ratio of expression “normalized to pre-treatment.” Expression at a specific time point was then normalized to the D5W control group by dividing the “normalized to pre-treatment” ratio for an individual animal by the mean “normalized to pretreatment” ratio of all mice in the D5W control group.

ANGPTL3 gene [4] = experiment: Example 3: serum total cholesterol in mice; type: in vivo
Method: as §1, with “target” for “target additional”, “positions 921 and 922” for “positions”, “(mpk)” for “(mpk) or 0.5 mg/kg (mpk)”, “12.” for “17.”
as §2, with “Serum was collected on days 8, 15, 22, 29, and day 43 (Groups 1-3, 9, and 11-13 only).” left out
as §3

[5] = Day 8, 1.0 mg/kg single SC injection on day 1
[6] = Day 15, 1.0 mg/kg single SC injection on day 1
[7] = Day 22, 1.0 mg/kg single SC injection on day 1
[8] = Day 29, 1.0 mg/kg single SC injection on day 1
[9] = Day 43, 1.0 mg/kg single SC injection on day 1
[10] = Day 8, 1.0 mg/kg single subcutaneous dose on day 1, female C57bl/6 mice
[11] = Day 15, 1.0 mg/kg single subcutaneous dose on day 1, female C57bl/6 mice
[12] = Day 22, 1.0 mg/kg single subcutaneous dose on day 1, female C57bl/6 mice
[13] = Day 29, 1.0 mg/kg single subcutaneous dose on day 1, female C57bl/6 mice
[14] = Day 43, 1.0 mg/kg single subcutaneous dose on day 1, female C57bl/6 mice
[15] = Day 8, 0.5 mg/kg single SC injection on day 1, n=3
[16] = Day 15, 0.5 mg/kg single SC injection on day 1, n=3
[17] = Day 22, 0.5 mg/kg single SC injection on day 1, n=3
[18] = Day 29, 0.5 mg/kg single SC injection on day 1, n=3

| Substance | Avg LDL, normalized to pre-treatment and control (ANGPTL3 gene [1]; [5]) | Avg LDL, normalized to pre-treatment and control (ANGPTL3 gene [1]; [6]) | Avg LDL, normalized to pre-treatment and control (ANGPTL3 gene [1]; [7]) | Avg LDL, normalized to pre-treatment and control (ANGPTL3 gene [1]; [8]) | Avg LDL, normalized to pre-treatment and control (ANGPTL3 gene [1]; [9]) | Avg TG (Average Triglycerides Normalized to Pre-Treatment and Control) (ANGPTL3 gene [2]; [10]) | Avg TG (Average Triglycerides Normalized to Pre-Treatment and Control) (ANGPTL3 gene [2]; [11]) | Avg TG (Average Triglycerides Normalized to Pre-Treatment and Control) (ANGPTL3 gene [2]; [12]) | Avg TG (Average Triglycerides Normalized to Pre-Treatment and Control) (ANGPTL3 gene [2]; [13]) | Avg TG (Average Triglycerides Normalized to Pre-Treatment and Control) (ANGPTL3 gene [2]; [14]) | Avg Total Chol, normalized to pre-treatment and control (ANGPTL3 gene [3]; [15]) | Avg Total Chol, normalized to pre-treatment and control (ANGPTL3 gene [3]; [16]) | Avg Total Chol, normalized to pre-treatment and control (ANGPTL3 gene [3]; [17]) | Avg Total Chol, normalized to pre-treatment and control (ANGPTL3 gene [3]; [18]) | Avg Total Chol (Average Total Cholestrol Normalized to Pre-Treatment and Control) (ANGPTL3 gene [4]; [10]) | Avg Total Chol (Average Total Cholestrol Normalized to Pre-Treatment and Control) (ANGPTL3 gene [4]; [11]) | Avg Total Chol (Average Total Cholestrol Normalized to Pre-Treatment and Control) (ANGPTL3 gene [4]; [12]) | Avg Total Chol (Average Total Cholestrol Normalized to Pre-Treatment and Control) (ANGPTL3 gene [4]; [13]) | also measured |
| --- | --- | --- | --- | --- | --- | --- | --- | --- | --- | --- | --- | --- | --- | --- | --- | --- | --- | --- | --- |
| AD05418: RNAi agent duplex: antisense AM07159-AS, sense AM07158-SS (antisense mU*fU*mU*fGmAfAmUfUmAfAmUfGmUfCmCfAmUfGmGfG*mU; sense {NAG37}*[invAb]*mAmCmCmCmAmUmGmGfAfCfAmUmUmAmAmUmUmCmAmAmA*[invAb]) | 1.044 | 0.841 | 1.142 | 0.966 | 0.921 | 0.858 | 1.065 | 1.079 | 0.980 | 0.892 | 0.950 | 0.878 | 0.926 | 1.023 | 0.783 | 0.842 | 0.916 | 0.953 |  |
| AD05307: RNAi agent duplex: antisense AM07001-AS, sense AM07000-SS (chain 1 mU*fU*mU*fGmAfAmUfUmAfAmUfGmUfCmCfAmUfGmGmG*mC; chain 2 {NAG37}*[invAb]*mGmCmCmCmAmUmGmGfAfCfAmUmUmAmAmUmUmCmAmAmA*[invAb]) |  |  |  |  |  |  |  |  |  |  |  |  |  |  | 0.940 | 0.840 | 0.948 | 1.088 |  |
| AD05308: RNAi agent duplex: antisense AM07003-AS, sense AM07002-SS (chain 1 mU*fG*mU*fUmGfAmAfUmUfAmAfUmGfUmCfCmAfUmGfG*mA; chain 2 {NAG37}*[invAb]*mUmCmCmAmUmGmGmAfCfAfUmUmAmAmUmUmCmAmAmCmA*[invAb]) | 0.842 | 0.688 | 0.829 | 0.897 | 1.033 | 0.749 | 1.164 | 1.152 | 1.021 | 0.994 | 0.756 | 0.814 | 0.896 | 0.927 | 0.872 | 0.768 | 1.048 | 0.978 | Avg LDL, normalized to pre-treatment and control (ANGPTL3 gene [1]; Day 8, 0.5 mg/kg single SC injection on day 1): 0.965; Avg LDL, normalized to pre-treatment and control (ANGPTL3 gene [1]; Day 15, 0.5 mg/kg single SC injection on day 1): 0.830; Avg TG (Average Triglycerides Normalized to Pre-Treatment and Control) (ANGPTL3 gene [2]; Day 8, 0.5 mg/kg single subcutaneous dose on day 1, female C57bl/6 mice): 1.330; Avg TG (Average Triglycerides Normalized to Pre-Treatment and Control) (ANGPTL3 gene [2]; Day 15, 0.5 mg/kg single subcutaneous dose on day 1, female C57bl/6 mice): 1.598; Avg TG (Average Triglycerides Normalized to Pre-Treatment and Control) (ANGPTL3 gene [2]; Day 22, 0.5 mg/kg single subcutaneous dose on day 1, female C57bl/6 mice): 1.732; Avg TG (Average Triglycerides Normalized to Pre-Treatment and Control) (ANGPTL3 gene [2]; Day 29, 0.5 mg/kg single subcutaneous dose on day 1, female C57bl/6 mice): 1.446; Avg TG (Average Triglycerides Normalized to Pre-Treatment and Control) (ANGPTL3 gene [2]; Day 43, 0.5 mg/kg single subcutaneous dose on day 1, female C57bl/6 mice): 1.547 |
| AD05488: RNAi agent duplex: antisense AM07235-AS, sense AM07234-SS (antisense mU*fA*mC*fUmGfAmUfCmAfAmAfUmAfUmGfUmUfGmAfG*mC; sense {NAG37}*[invAb]*mGmCmUmCmAmAmCmAfUfAfUmUmUmGmAmUmCmAmGmUmA*[invAb]) | 0.936 | 0.714 | 0.811 | 0.801 | 0.902 | 0.624 | 0.795 | 0.837 | 0.721 | 0.901 | 0.802 | 0.810 | 0.810 | 0.906 |  |  |  |  | LDL levels reduced (ANGPTL3 gene [1]; day 29, single 1 mg/kg subcutaneous, C57bl/6 mice): ~20% |
